Test results taken from patent publication US8623338B2, “Methionine-derived peptidomimetics and their use in the protection of mitochondria of cutaneous cells” (Exsymol S.A.M., priority 2010, dated 2014).
Where “and” joins values, the source holds several entries; their conditions need not be identical. Equal values may be shown once. Read-outs that look alike come from different tables or passages of the source. Marks after values point to notes of the source that are not given here. Values belong to the compound of their own block, whether it stands above or below them.

How the values were obtained:
[1] = test system: cell line of fibroblasts called V79; assay: Restoration of cellular ATP levels in V79 fibroblasts exposed to H2O2 stress (luminometry, ATPlite 1step); type: cell-based, hamster; details: V79 cells
Description: Test 1: Evidence of the Ability of the Methionine-derived Peptidomimetics to Restore the Cellular ATP Levels on Cells Exposed to a Stress (H2O2):
The experimental study has been carried out on a cell line of fibroblasts called V79, and seeded in a 96 well plate at the rate of 5000 cells per well in 100 μl of culture medium (containing 10% foetal calf serum). This one is then replaced in each of the well by 100 μl of medium containing some peptidomimetics according to the invention, at the concentration of 7.5 mM or 10 mM. After 2 hours of incubation, the medium is removed from all wells. Then the cells are submitted to a stress with the addition of a medium containing 50 μl of hydrogen peroxide H2O2 (4 ppm). After 8 additional hours of incubation, the ATP average concentration is measured by luminometry in presence of luciferin (“ATPlite lstep” kit) and through a standard curve prepared from highly purified ATP.
The results, expressed as the average values obtained from three independent experiments, are presented in the hereafter table 1, in comparison with a control.

[2] = Whitening test of pyrogallol red by peroxynitrite ions; details: inhibition of pyrogallol red (50 μM) oxidation by ONOO− (25 μM), pH 7.0, 5 minutes
Text: Test 6: Evidence of the Antioxidant Effect of the […])Propylamine Compound on Peroxynitrite Ions The method so-called “whitening test of the pyrogallol red (PR)”, described by Nath V. B. and coll.

[3] = Hydroxyl radical scavenging speed constant (deoxyribose / thiobarbituric acid method); details: pH 7.4, 37° C., one hour
Text: Test 5: Evidence of the Antioxidant Effect of the N-Acety-(DL)-Methionyl-4-(Methylthio)Propylamine and N-Propionyl-(DL)-Methionyl-4-(Methylthio)Propylamine on the Hydroxyl Radical
The method, described by Rehman A. and coll. (British J. Pharmacol. (1997), vol. 122, pp. 1702-1706), is used for the determination of the scavenging speed constant of the hydroxyl radical [Ks (OH°)], the peptidomimetic according to the invention being compared to two reference antioxidants, mannitol and ascorbic acid (vitamin C).
Experimentally, the tested substance is dissolved in a buffered medium of pH 7.4 to which is added a OH° generating system (ascorbate/iron/EDTA) in presence of deoxyribose. After one hour of incubation at 37° C., the reaction is stopped with the help of trichloroacetic acid. After colorimetric visualization with thiobarbituric acid, the absorbance is measured at 532 nm for different concentrations, then the relative Ks (OH°) is calculated for each of the substances.

[4] = Percutaneous absorption on human skin explants (Frantz-type cells, OECD guideline 428); type: in vitro ADME; details: 1% solution, 24 hours contact
Text: Test 2: Percutaneous Absorption Study of the Methionine-derived Peptidomimetics on Human Skin Explants: The values of permeability coefficient (Kp) were obtained from a previously frozen abdominal […] human skin, in accordance with protocol described in the OECD guidelines n° 428 on cutaneous absorption studies. Experimentally, the skin explants were placed on Frantz-type cells in passive diffusion, piloted by the “MicroettePlus Hanson Research” system. The tested products are applied in a non-occlusive way. After that skin was laid on the cells, 500 μl of peptidomimetic according to the invention (1% solution) were placed in each of the cells and for a total contact time of 24 hours. At the end of these ones, the remaining product is sampled and the skin surface rinsed for extraction and for measure of the absorbed quantity, then for the determination of the permeability coefficient expressed under logarithmic type (Log Kp).

[5] = test system: mitochondrial mass of V79 cells; assay: Mitochondrial mass / biogenesis in V79 cells under H2O2 stress (MitoTracker Green FM, flux cytometry); type: cell-based, hamster; details: Mitogreen
Text: (§1) Test 3: Evidence of the Protective Effect of the N-Acety-(DL)-Methionyl-4-(Methylthio)Propylamine Compound on the Mitochondrial Oxidative Stress and on the Mitochondrial Biogenesis
(§2) Principles: measures of the mitochondrial intracellular oxidative stress and detection of the mitochondrial biogenesis were achieved by flux cytometry with the following fluorophore markers: • the “MitoSOX™ Red” red fluorescent probe below-designed “MitoSOX” (detection to λ=580 nm; supplier: Invitrogen) allows to specifically detect the O2°^− superoxide anion present in mitochondria (due to its strong affinity for mitochondria), • the “MitoTracker® Green FM” green fluorescent probe below-designed “Mitogreen” (detection to λ=516 nm; supplier: Invitrogen) allows to quantify the mitochondrial mass (or related number of mitochondria per cell).
(§3) Experimentally, tests were achieved on a fibroblastic line of hamster “V79”, maintained by lining out in a “EMEM” complete culture medium (with 10% foetal calf serum) in humid atmosphere at 37° C. and 5% CO2. The V79 cells are seeded then incubated 24 hours in […] at the rate of 2.5·10^5 cells per well in 3 ml of the same culture medium, then exposed 1h30 to a stress with the addition of a medium containing hydrogen peroxide H2O2 (15 ppm).
(§4) After trypsination, the cells are incubated at 37° C. for 15 minutes in 1 ml of “EMEM” complete culture medium and containing the above-mentioned markers “MitoSOX” (at the final concentration of 5 μM) and “Mitogreen” (at the final concentration of 200 nM), for respective detection: • of the mitochondrial oxidative stress (expressed in % of positive cells) • of the mitochondrial mass per cell (expressed in % of MFI (“Mean Fluorescence Intensity”) in relation to the control).
(§5) The results, expressed as the average values obtained from four independent experiments, are presented in the hereafter tables 3a and 3b, in comparison with those obtained for the N-acetyl-cysteine chosen as a reference protective agent at the concentration of 5 mM.

[6] = test system: O2°− superoxide anion present in mitochondria of V79 cells; assay: Mitochondrial oxidative stress in V79 cells under H2O2 stress (MitoSOX Red, flux cytometry); type: cell-based, hamster; details: for % of positive cells to MitoSOX: V79 cells
Text: as §1, §2, §3, §4, §5

[7] = reference antioxidants, literature footnotes; cited from earlier work
[8] = literature value (Mitragotri 2003); cited from earlier work

IC50 [2]: 1010 µM
Kp [4]: 0.000109 cm/h
Compound: CSCCCNC(=O)C(CCSC)NC(C)=O (stereo not drawn) [N-acetyl-(DL)-methionyl-4-(methylthio)propylamine]
ATP ([1]; compound 7.5 mM + H2O2 (4 ppm), 8 h): 483 nM
ATP ([1]; compound 7.5 mM, no H2O2): 591 nM
Ks(OH°) [3]: 6.1 10^9 · M^−1 · s^−1
MFI (% control) ([5]; 7.5 mM + H2O2 (15 ppm, 1h30)): 123.5 % control
MFI (% control) ([5]; 10 mM + H2O2 (15 ppm, 1h30)): 127.5 % control
effect on intramitochondrial stress (MitoSOX and Mitogreen) ([6]; V79 cells + H2O2, in words, both tables 3a and 3b): ability to reduce the effect of intramitochondrial stress
% of positive cells to MitoSOX ([6]; 7.5 mM + H2O2 (15 ppm, 1h30)): 40.3%

Compound: CC(=O)N[C@@H](CS)C(=O)O [N-acetyl-cysteine, reference compound]
MFI (% control) ([5]; 5 ppm + H2O2 (15 ppm, 1h30)): 74.4 % control
% of positive cells to MitoSOX ([6]; 5 ppm + H2O2 (15 ppm, 1h30)): 15.2%

Kp [4]: 9.7e-05 cm/h
Compound: CCC(=O)NC(CCSC)C(=O)NCCCSC (stereo not drawn) [N-propionyl-(DL)-methionyl-4-(methylthio)propylamine]
ATP ([1]; compound 10 mM + H2O2 (4 ppm), 8 h): 449 nM
ATP ([1]; compound 10 mM, no H2O2): 528 nM
Ks(OH°) [3]: 5.7 10^9 · M^−1 · s^−1

IC50 [2]: 83 µM
Compound: Cc1c(C)c2c(c(C)c1O)CCC(C)(C(=O)O)O2 (stereo not shown) [Trolox, carboxylic 2-(6-hydroxy-2,5,7,8-tetramethylchromane) acid, reference compound]

Compound: O=C1O[C@H]([C@@H](O)CO)C(O)=C1O [ascorbic acid]
Ks(OH°) [7]: 10.1** 10^9 · M^−1 · s^−1

Compound: Cn1c(=O)c2c(ncn2C)n(C)c1=O [caffeine]
Kp [8]: 1 · 10^−4** cm · h^−1

Compound: OC[C@@H](O)[C@@H](O)[C@H](O)[C@H](O)CO [mannitol]
Ks(OH°) [7]: 1.6 10^9 · M^−1 · s^−1 and 1.9 10^9 · M^−1 · s^−1
